In publication PMC6588697, “Lugdunin amplifies innate immune responses in the skin in synergy with host- and microbiota-derived factors” (Nature Communications, 2019):
Values joined by “and” are separate entries in the source; they are usually repeats but may differ in a detail not shown here. Identical values can stand only once.

Columns and labels:
PBMCs = assay: CXCL8 expression in PBMCs (qRT-PCR); format: cell-based, human; details: 5 h, two technical replicates
Protocol: (§1) Quantitative reverse transcription-polymerase chain reaction (qRT-PCR) was performed in 10 µL reaction volume with SYBR^TM Green PCR Master Mix (Thermo Fisher) according to the manufacturer’s instructions using a LightCycler 96 (Roche Life Science). The initial denaturation step was at 95 °C for 5 min, followed by 40 cycles with 10 s each for the denaturation step at 95 °C, the annealing at individual temperature, and the elongation at 72 °C. Primer sequences and respective annealing temperatures are listed in Supplementary Table 1.
Human PBMCs were isolated from the peripheral blood of healthy donors upon obtaining informed consent by Ficoll-Histopaque (Biochrom) gradient centrifugation. Cells were washed once in PBS and adjusted to a cell number of 1 × 10^6 mL^−1 in RPMI-1640 medium (Gibco/Life Technologies) containing 10% FBS (Biochrom/Merck Millipore). […]
31 g+h+i: HNEpCs (b), HTEpCs (c) or PBMCs (d) were treated with increasing
32 concentrations of lugdunin (grey bars) or 100 ng/mL Pam2Cys or Pam3Cys (white
33 bars) as positive controls for 5 hours and subsequently expression of CXCL8 was
34 analyzed and normalized to actin. Black bar: medium control. Shown is one
35 representative experiment of three independent experiments with two technical
36 replicates +/-s.e.m. Significant differences to control treatments were analyzed by
37 ordinary one-way ANOVA followed by Dunnett’s multiple comparisons test (*P<0.05; […]

HEK293-TLR2 cells = assay: CXCL8 expression in HEK-TLR2 cells (qRT-PCR); format: cell-based, human; details: 5 h, two technical replicates, Fig 2b
Protocol: Fig. 2 Induction of chemokine (C-X-C motif) ligand 8/macrophage inflammatory protein-2 (CXCL8/MIP-2) by lugdunin is TLR2/MyD88-dependent. a HEK-control or HEK-TLR2 cells were treated with 2 μM lugdunin for 5 h and subsequently the CXCL8 concentration in the supernatant was analyzed by LEGENDplex^TM (BioLegend). Shown is one representative experiment of three independent experiments with two technical replicates ± s.e.m. b HEK-control or HEK-TLR2 cells were treated with increasing concentrations of lugdunin for 5 h and subsequently expression of CXCL8 was analyzed and normalized to actin. Shown is one representative experiment of three independent experiments with two technical replicates ± s.e.m. c Schematic overview of the mouse experiments: 6–8-week-old female C5BL/6 WT, MyD88-knockout (ko), or 5xTLR-ko mice were epicutaneously treated with 1.5 µg lugdunin or phosphate-buffered saline (PBS) as a control. After 24 h, mice were euthanized, 4 mm skin punches were taken, and further cultured in vitro for 10 h followed by cytokine analysis of the culture supernatant by LEGENDplex^TM (BioLegend). d, e Shown are the mean concentrations of IL-1α (d) or MIP-2 (e) in the skin culture supernatant of two skin punches from four mice each ± s.e.m. Significant differences to control treatments were analyzed by an unpaired two-tailed t test (*P < 0.05; **P < 0.01; ***P < 0.001). f Representative MIP-2-stained paraffin-embedded mouse skin sections. Scale bar, 100 µM. Source data are provided as a Source Data file
as §1, with “1. […]” for “1.”

Q: Which results are given for Lugdunin?
A: CXCL8 fold induction (PBMCs; lugdunin 0.5 µM, sheet Supp Fig 1h): 0.8179 and 0.8236; CXCL8 fold induction (PBMCs; lugdunin 1 µM): 1.223 and 1.275; CXCL8 fold induction (PBMCs; lugdunin 2 µM): 2.085 and 1.84; CXCL8 fold induction (PBMCs; lugdunin 3 µM): 2.121 and 2.305; CXCL8 fold induction (PBMCs; lugdunin 5 µM): 3.021 and 3.221; CXCL8 fold induction (PBMCs; lugdunin 10 µM): 3.494 and 3.593; CXCL8 expression normalized to actin (HEK293-TLR2 cells; HEK-TLR2, lugdunin 0.5 µM, medium = 1): 2.676 and 2.042; CXCL8 expression normalized to actin (HEK293-TLR2 cells; HEK-TLR2, lugdunin 1 µM): 1.404 and 1.257; CXCL8 expression normalized to actin (HEK293-TLR2 cells; HEK-TLR2, lugdunin 2 µM): 3.918 and 4.112; CXCL8 expression normalized to actin (HEK293-TLR2 cells; HEK-TLR2, lugdunin 3 µM): 4.408 and 3.864; CXCL8 expression normalized to actin (HEK293-TLR2 cells; HEK-TLR2, lugdunin 5 µM): 6.364 and 6.916; CXCL8 expression normalized to actin (HEK293-TLR2 cells; HEK-TLR2, lugdunin 10 µM): 9.415 and 10.232
